Patent publication US20150005506A1, “THERAPEUTIC AGENT FOR DIABETES” (Teijin Pharma Limited, priority 2012, published 2015)

Assays:
Assay type in all cases: in vivo, C57BL/6J mice
[1] = system: mice loaded with a high-fat diet; experiment: Glucose tolerance test in mice loaded with high-fat diet (Example 2); settings: 3 mg/kg/day in drinking water, 12 weeks
Method: Male C57BL/6J mice (8 week-old) were loaded with a high-fat diet with the proportion of fat-derived calories over the total calories (Fat Kcal %) of 60%. Herewith, insulin resistance, impaired glucose tolerance, and diabetes mellitus are developed. At the same time of the initiation of loading high-fat diet, febuxostat dissolved in tap water at 3 mg/kg/day was administered to mice as drinking water in the Febuxostat group and mice in the Vehicle group were reared by administration of tap water as drinking water. Twelve weeks after the loading of a high-fat diet and the administration of febuxostat, a glucose tolerance test was carried out to assess impaired glucose tolerance. More specifically, the mice were made to fast for 4 hours; thereafter 0.5 g/kg of glucose was intraperitoneally administered to the mice. And blood sampling was conducted at 0 minute, 15 minutes, 30 minutes, 60 minutes, 90 minutes, and 120 minutes after glucose load respectively to measure glucose levels.

[2] = system: mice loaded with a high-fat diet; experiment: Blood glucose levels 2 hours after glucose load in mice loaded with high-fat diet; settings: 0.5 g/kg glucose i.p. after 4 hours starvation, 3 mg/kg/day in drinking water, 12 weeks
Method: (§1) Male C57BL/6J mice (age of 8 weeks) were loaded with a high-fat diet, with the proportion of fat-derived calories over total calories (Fat Kcal %) of 60%. Herewith, insulin resistance, impaired glucose tolerance, and diabetes mellitus are developed. In a group of febuxostat treatment (Febuxostat group), febuxostat was dissolved in tap water at a dose of 3 mg/kg/day and was administered to the mice as daily drinking water at the same time of the initiation of loading with a high-fat diet. Mice in the Vehicle group were given tap water. Moreover, in the normal animal group, mice were reared with a regular diet and tap water in the same period as the Febuxostat group and the Vehicle group. Ten weeks after the start of the high-fat diet and the administration of febuxostat, an insulin tolerance test was carried out to assess random blood glucose levels and insulin resistance. More specifically, 1.5 U/kg of insulin was intraperitoneally administered to the mice and blood glucose levels were measured at 0 minute, 30 minutes, 60 minutes, 90 minutes, 120 minutes after the administration of insulin. […] Blood glucose levels were measured at 120 minutes after the administration of glucose. […]

[3] = system: mice loaded with a high-fat diet; experiment: Random blood glucose level in mice loaded with high-fat diet; settings: 3 mg/kg/day in drinking water, 10 weeks, mean ± standard deviation, n = 9 to 10
Method: as §1

[4] = system: mice loaded with a high-fat diet; experiment: Blood uric acid levels in mice loaded with high-fat diet; settings: last day of administration, 3 mg/kg/day in drinking water
Method: as §1

[5] = system: mice loaded with a high-fat diet; experiment: Insulin tolerance test in mice loaded with high-fat diet; settings: 3 mg/kg/day in drinking water, 10 weeks
Method: Male C57BL/6J mice (age of 8 weeks) were loaded with a high-fat diet, with the proportion of fat-derived calories over total calories (Fat Kcal %) of 60%. Herewith, insulin resistance, impaired glucose tolerance, and diabetes mellitus are developed. In a group of febuxostat treatment (Febuxostat group), febuxostat was dissolved in tap water at a dose of 3 mg/kg/day and was administered to the mice as daily drinking water at the same time of the initiation of loading with a high-fat diet. Mice in the Vehicle group were given tap water. Moreover, in the normal animal group, mice were reared with a regular diet and tap water in the same period as the Febuxostat group and the Vehicle group. Ten weeks after the start of the high-fat diet and the administration of febuxostat, an insulin tolerance test was carried out to assess random blood glucose levels and insulin resistance. More specifically, 1.5 U/kg of insulin was intraperitoneally administered to the mice and blood glucose levels were measured at 0 minute, 30 minutes, 60 minutes, 90 minutes, 120 minutes after the administration of insulin. Moreover, 12 weeks after the initiation of the high-fat diet and the administration of febuxostat, 0.5 g/kg of glucose was intraperitoneally administered to the mice starved for 4 hours to assess 2-hour blood glucose levels after glucose load. Blood glucose levels were measured at 120 minutes after the administration of glucose. Moreover, on the last day of the administration, blood sampling was carried out to measure blood uric acid levels.

`Cc1nc(-c2ccc(OCC(C)C)c(C#N)c2)sc1C(=O)O` [Febuxostat, 2-(3-cyano-4-isobutyloxyphenyl)-4-methyl-5-thiazole carboxylic acid] showed a Blood glucose levels ([1]; 0 min after 0.5 g/kg glucose i.p., n = 5 to 6) of 214 ± 17 mg/dL, a Blood glucose levels ([1]; 15 min after 0.5 g/kg glucose i.p.) of 368 ± 29 mg/dL and a Blood glucose levels ([1]; 30 min after 0.5 g/kg glucose i.p.) of 378 ± 26 mg/dL. It also gave a Blood glucose levels ([1]; 60 min after 0.5 g/kg glucose i.p.) of 349 ± 35 mg/dL, a Blood glucose levels ([1]; 90 min after 0.5 g/kg glucose i.p.) of 323 ± 43 mg/dL and a Blood glucose levels ([1]; 120 min after 0.5 g/kg glucose i.p.) of 279 ± 31 mg/dL. For the same compound, the “Blood glucose levels 2 hours after glucose load” value [2] was 396 ± 18 mg/dL, the “Random blood glucose level” value [3] was 244 ± 7 mg/dL and the “Blood uric acid levels” value [4] was 0.7 ± 0.1 mg/dL. The “Ratio of blood glucose levels relative to the value before insulin administration” value ([5]; 30 min after 1.5 U/kg insulin i.p.) was 66 ± 4%, the “Ratio of blood glucose levels relative to the value before insulin administration” value ([5]; 60 min after 1.5 U/kg insulin i.p.) was 62 ± 3% and the “Ratio of blood glucose levels relative to the value before insulin administration” value ([5]; 90 min after 1.5 U/kg insulin i.p.) was 71 ± 4%. For the same compound, the “Ratio of blood glucose levels relative to the value before insulin administration” value ([5]; 120 min after 1.5 U/kg insulin i.p.) was 91 ± 5% and the “Blood glucose level AUC (0-2 hour)” value ([5]; after 1.5 U/kg insulin i.p.) was 371 ± 17 mg·h/dL.
